The values below come from PubChem BioAssay (NCI).

Holding throughout (test): NCI anticancer screen, dose series, 48 h
Test [1] has as its system M14 melanoma.
The subject of test [2] is SR leukemia.
In test [3] the test system is RXF 393 renal.
Test [4] concerns CAKI-1 renal.
Test [5] deals with HCT-15 colon.
Test [6] relates to SF-295 CNS.
For test [7], the system named is K-562 leukemia.
Test [8] deals with NCI-H522 lung.
The test system of test [9] is A498 renal.
In test [10] the test system is HCC-2998 colon.

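48-hour exposure; five concentrations; linearly interpolated endpoints. Here, GI50 denotes the concentration required for 50% inhibition of growth. TGI marks complete inhibition of growth.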

For the molecule `Cc1ccc2c(=O)c3cccc(CC(=O)O)c3oc2c1C`, the GI50 in test [1], in test [2], in test [3], in [4], in [5] and in [6] was above 100 µM in each case. Besides, the GI50 in test [7] is above 100 µM; in test [8], above 100 µM; in test [9] it was 70.6 µM; in test [10], above 100 µM. Also, the TGI in test [1], in test [2], in test [3], in test [4], in test [5] and in test [6] was above 100 µM throughout. The TGI in [7], in test [8], in [9] and in test [10] was above 100 µM throughout.
As for `O=[N+]([O-])C1C2C=CC(C2)[C@H]1c1ccccc1Cl` (stereo not given in full), the TGI in [1] is above 100 µM; in test [2], above 100 µM; in test [3], above 100 µM; in test [4], above 10 µM; in test [5], above 100 µM; in test [6], above 100 µM. Further, the TGI in test [7] was above 100 µM; in test [8], above 31.6 µM; in test [9] it was above 100 µM; in test [10], above 100 µM.
As to `N#CC12C3C4CC5C6C4C1C6C(O)(C53)N2Cc1ccccc1` (stereo not given), the TGI in test [1], in test [2], in [3], in test [4], in [5] and in [6] was above 100 µM each time. Moreover, the TGI in test [7], in test [8], in [9] and in test [10] was above 100 µM throughout.
As to `C=C1C(=O)O[C@H]2[C@H]1CC/C(Cn1cc(-c3ccccc3)nn1)=C\CC[C@@]1(C)O[C@@H]21`, the GI50 in [1] was 1.78 µM; in test [2], 1.06 µM; in test [3], 1.55 µM; in test [4], 1.28 µM; in test [5], 0.769 µM; in test [6], 7.88 µM. In addition, the GI50 is 1.76 µM in test [7], 0.811 µM in [8], 7.8 µM in test [9] and 6.16 µM in test [10]. Besides, the TGI in test [1] worked out at 7.6 µM; in test [2] it was 6.44 µM; in test [3], 4.22 µM; in test [4], 4.83 µM; in test [5], 1.68 µM; in test [6], 15.4 µM. For the same molecule, the TGI in [7] was 8.49 µM; in test [8] it was 1.66 µM; in test [9], 15 µM; in test [10], 13 µM.
Take `O=C1c2ccccc2-c2c1c1ccccc1c(=O)n2CCCN1CCOCC1`: the GI50 was 99.2 µM in test [1]; 12.2 µM in [2]; 6.21 µM in test [3]; 14 µM in test [4]; 21.8 µM in [5]; 6.72 µM in [6]. Moreover, the GI50 in [7] was above 100 µM; in test [8], 10.1 µM; in test [9], 21.7 µM; in test [10], above 40.1 µM. For the same molecule, the TGI in test [1] was above 100 µM; in test [2], above 100 µM; in test [3], 24.3 µM; in test [4], 30 µM; in [5], above 100 µM; in test [6], 20.6 µM. Further, the TGI in test [7] was above 100 µM; in test [8], above 63.3 µM; in test [9] it was 71.4 µM; in test [10], above 100 µM.
Regarding `O=C1OC(=O)C2C1C1(c3ccccc3)C(c3ccccc3)=C(c3ccccc3)C2(c2ccccc2)S1=O` (stereo not given), the GI50 in test [1] was above 100 µM; in test [2] it was 49.3 µM; in test [3], above 100 µM; in test [4], above 100 µM; in [5], above 100 µM; in test [6] it was above 100 µM. Further, the GI50 in test [7] was 78.2 µM; in test [8], above 100 µM; in test [9], above 100 µM; in test [10], above 100 µM. For the same molecule, the TGI in test [1], in test [2], in [3], in [4], in test [5] and in [6] was above 100 µM each time. Moreover, the TGI in test [7], in test [8], in test [9] and in test [10] was above 100 µM in each case.
With `Cc1cc2c(F)c(Oc3ncnn4cc(OC[C@@H](C)OC(=O)[C@H](C)N)c(C)c34)ccc2[nH]1`, the GI50 in test [1] is 12.3 µM; in test [2] it was 2.99 µM; in [3] it was 8.4 µM; in test [4], 7.21 µM; in test [5] it was 0.882 µM; in test [6], 7.87 µM. Further, the GI50 in test [7] was 3.83 µM; in test [8] it was 11.1 µM; in test [9], 4.55 µM; in test [10], 13.5 µM. Besides, the TGI in [1] stood at 25.7 µM; in test [2], 16 µM; in test [3], 22.5 µM; in test [4] it was 21.5 µM; in test [5] it was 14 µM; in test [6], 21.3 µM. In addition, the TGI in test [7] was 20.2 µM; in test [8], 24.7 µM; in [9] it was 17.3 µM; in [10] it was 27.6 µM.
Take `CN(C)c1ccc2c3c(c(=O)oc2c1)CCC3`: the TGI in test [1], in [2], in [3], in test [4], in test [5] and in [6] was above 100 µM each time. Moreover, the TGI in test [7], in test [8], in test [9] and in test [10] was above 100 µM in each case.
With `CCN(CC)CCOc1ccc(/C=C2\CC3C4CC=C5C[C@@H](N6CCCC6)CC[C@]5(C)C4CC[C@]3(C)[C@H]2O)cc1OC` (stereo not given in full), the GI50 in test [1] was 1.92 µM; in test [2], 0.224 µM; in test [3], 3.79 µM; in [4] it was 16.3 µM; in test [5] it was 3.45 µM; in [6] it was 3.86 µM. The GI50 in test [7] is 4.49 µM; in test [8], 9.06 µM; in test [9] it was 0.0502 µM; in test [10], 1.71 µM. Also, the TGI in test [1] worked out at 4.23 µM; in [2], 0.648 µM; in test [3], 17.8 µM; in test [4] it was 46.1 µM; in test [5], 22.4 µM; in test [6], 13.5 µM. Also, the TGI in [7] is above 100 µM; in test [8], above 30.2 µM; in test [9], 1.46 µM; in [10], 4.79 µM.
